PubChem BioAssay AID330 (DTP/NCI, 2004)
Values joined by “and” are separate entries in the source; they are usually repeats but may differ in a detail not shown here. Equal values may be shown once. Inconclusive results and toxic doses are left out.

Test system: P388 leukemia ip, CD2F1 mice, survival T/C
Experiment: NCI In Vivo Anticancer Drug Screen. Data for tumor model P388 Leukemia (intraperitoneal) in CD2F1 (CDF1) mice
Conditions: endpoint: median survival time, higher = longer survival
Method in brief: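 Mice carrying the transplanted tumor received test compound or vehicle. Survival was recorded in each group, and the value is the treated-group measurement divided by that of the vehicle-treated control group.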

[1] = dose: 50.0 mg/kg/injection, schedule: Q01DX009 (ip), vehicle: saline with Tween-80
[2] = dose: 100.0 mg/kg/injection, schedule: Q01DX009 (ip), vehicle: saline with Tween-80
[3] = dose: 200.0 mg/kg/injection, schedule: Q01DX009 (ip), vehicle: saline with Tween-80
[4] = dose: 12.5 mg/kg/injection, schedule: Q01DX005 (ip), vehicle: Klucel (hydroxypropylcellulose) (HPC)
[5] = dose: 25.0 mg/kg/injection, schedule: Q01DX005 (ip), vehicle: Klucel (hydroxypropylcellulose) (HPC)
[6] = dose: 50.0 mg/kg/injection, schedule: Q01DX005 (ip), vehicle: Klucel (hydroxypropylcellulose) (HPC)
[7] = dose: 400.0 mg/kg/injection, schedule: Q01DX009 (ip), vehicle: saline with Tween-80
[8] = dose: 100.0 mg/kg/injection, schedule: Q01DX005 (ip), vehicle: Klucel (hydroxypropylcellulose) (HPC)
[9] = dose: 200.0 mg/kg/injection, schedule: Q01DX005 (ip), vehicle: Klucel (hydroxypropylcellulose) (HPC)
[10] = dose: 50.0 mg/kg/injection, schedule: Q01DX005 (ip), vehicle: saline with Tween-80
[11] = dose: 100.0 mg/kg/injection, schedule: Q01DX005 (ip), vehicle: saline with Tween-80
[12] = dose: 25.0 mg/kg/injection, schedule: Q01DX009 (ip), vehicle: saline with Tween-80

## ClCCN(CCCl)CCNc1ccnc2cc(Cl)ccc12
dose: 0.1 mg/kg/injection, schedule: Q01DX009 (ip), vehicle: saline
  T/C: 104 % of control
dose: 0.2 mg/kg/injection, schedule: Q01DX009 (ip), vehicle: saline
  T/C: 90 % of control
dose: 0.38 mg/kg/injection, schedule: Q01DX009 (ip), vehicle: saline
  T/C: 114 % of control
dose: 0.5 mg/kg/injection, schedule: Q01DX009 (ip), vehicle: saline sonified
  T/C: 90 % of control
dose: 0.58 mg/kg/injection, schedule: Q01DX009 (ip), vehicle: saline
  T/C: 114 % of control
dose: 0.88 mg/kg/injection, schedule: Q04DX003 (ip), vehicle: saline
  T/C: 118 % of control
dose: 1.0 mg/kg/injection, schedule: Q01DX009 (ip), vehicle: saline sonified
  T/C: 118 % of control
dose: 2.0 mg/kg/injection, schedule: Q04DX003 (ip), vehicle: saline
  T/C: 118 % of control
dose: 4.4 mg/kg/injection, schedule: Q01DX009 (ip), vehicle: saline
  T/C: 166 % of control

## CC(=O)OC1OC(CO)C(OCc2ccccc2)C(OCc2ccccc2)C1OC(C)=O (configuration not stated)
dose: 4.0 mg/kg/injection, schedule: Q01DX009 (ip), vehicle: other
  T/C: 116 % of control
dose: 8.0 mg/kg/injection, schedule: Q01DX009 (ip), vehicle: other
  T/C: 104 % of control
dose: 16.0 mg/kg/injection, schedule: Q01DX009 (ip), vehicle: other
  T/C: 100 % of control
dose: 32.0 mg/kg/injection, schedule: Q01DX009 (ip), vehicle: other
  T/C: 92 % of control
dose: 50.0 mg/kg/injection, schedule: Q01DX009 (ip), vehicle: other
  T/C: 99 % of control
dose: 64.0 mg/kg/injection, schedule: Q01DX009 (ip), vehicle: other
  T/C: 98 % of control
dose: 100.0 mg/kg/injection, schedule: Q01DX009 (ip), vehicle: other
  T/C: 99 % of control
dose: 200.0 mg/kg/injection, schedule: Q01DX009 (ip), vehicle: other
  T/C: 99 % of control
dose: 400.0 mg/kg/injection, schedule: Q01DX009 (ip), vehicle: other
  T/C: 99 % of control

## COc1cc([N+](=O)[O-])cc2cc(C)c(=O)oc12
[1]
  T/C: 99 % of control
[2]
  T/C: 91 % of control
[3]
  T/C: 91 % of control

## CCOc1ccc2ccccc2c1C(Cc1ccccc1)NC (configuration not stated)
[4]
  T/C: 99 % of control
[5]
  T/C: 93 % of control
[6]
  T/C: 99 % of control and 100 % of control

## Cc1cc2nc3c(C4OCC(O)C4O)nn(-c4ccc(F)cc4)c3nc2cc1C (configuration not stated)
[4]
  T/C: 95 % of control
[5]
  T/C: 90 % of control
[6]
  T/C: 88 % of control

## Cc1c(C)c(C[P+](CCP(c2ccccc2)c2ccccc2)(c2ccccc2)c2ccccc2)c(C)c(C)c1C[P+](CCP(c1ccccc1)c1ccccc1)(c1ccccc1)c1ccccc1
dose: 3.12 mg/kg/injection, schedule: Q04DX002 (ip), vehicle: saline with Tween-80
  T/C: 100 % of control
dose: 6.25 mg/kg/injection, schedule: Q04DX002 (ip), vehicle: saline with Tween-80
  T/C: 102 % of control
dose: 12.5 mg/kg/injection, schedule: Q04DX002 (ip), vehicle: saline with Tween-80
  T/C: 100 % of control and 101 % of control

## CC(=O)Nc1ccc(C(=O)O)cc1[N+](=O)[O-]
[2]
  T/C: 99 % of control
[3]
  T/C: 99 % of control
[7]
  T/C: 97 % of control

## O=c1oc(-c2ccccc2)cc2ccccc12
[6]
  T/C: 100 % of control and 105 % of control
[8]
  T/C: 99 % of control and 109 % of control
[9]
  T/C: 99 % of control and 98 % of control
dose: 400.0 mg/kg/injection, schedule: Q01DX005 (ip), vehicle: Klucel (hydroxypropylcellulose) (HPC)
  T/C: 100 % of control and 93 % of control

## CC(C)(C)N=C(CCC(C#N)(C#N)CCC(=NC(C)(C)C)Nc1ccc([N+](=O)[O-])cc1)Nc1ccc([N+](=O)[O-])cc1
[1]
  T/C: 98 % of control
[2]
  T/C: 95 % of control
[3]
  T/C: 88 % of control

## O=C(OCCCl)c1ccccc1NC(=O)N1CCOCC1
[6]
  T/C: 105 % of control
[8]
  T/C: 99 % of control
[9]
  T/C: 98 % of control

## CC(C)(C)N(O)N=O.CC(C)(C)N(O)N=O.[Cu]
dose: 6.25 mg/kg/injection, schedule: Q01DX001 (ip), vehicle: saline with Tween-80
  T/C: 103 % of control

## CCCCCNc1ncnc2c1ncn2C1OC(CO)C(O)C1O (configuration not stated)
dose: 12.5 mg/kg/injection, schedule: Q04DX003 (ip), vehicle: saline
  T/C: 97 % of control
dose: 25.0 mg/kg/injection, schedule: Q04DX003 (ip), vehicle: saline
  T/C: 108 % of control
dose: 50.0 mg/kg/injection, schedule: Q04DX003 (ip), vehicle: saline
  T/C: 102 % of control
dose: 100.0 mg/kg/injection, schedule: Q04DX003 (ip), vehicle: saline
  T/C: 104 % of control

## CC(=O)N(C)c1ccc(Nc2ccc(Nc3ccc(N(C)C(C)=O)cc3)c3c2C(=O)c2ccccc2C3=O)cc1
[10]
  T/C: 100 % of control
[11]
  T/C: 100 % of control
dose: 200.0 mg/kg/injection, schedule: Q01DX005 (ip), vehicle: saline with Tween-80
  T/C: 99 % of control

## COC(=O)c1ccc(NCC(=N)N)cc1
dose: 50.0 mg/kg/injection, schedule: Q01DX001 (ip), vehicle: saline
  T/C: 100 % of control
dose: 100.0 mg/kg/injection, schedule: Q01DX001 (ip), vehicle: saline
  T/C: 100 % of control
dose: 200.0 mg/kg/injection, schedule: Q01DX001 (ip), vehicle: saline
  T/C: 104 % of control

## CCOC1(C)C=CC(=NC(C)(C)C)C=C1 (configuration not stated)
[12]
  T/C: 97 % of control
[1]
  T/C: 101 % of control
[2]
  T/C: 101 % of control

## Cc1nnc(NN=O)nc1C
dose: 3.12 mg/kg/injection, schedule: Q01DX009 (ip), vehicle: water
  T/C: 96 % of control
dose: 6.25 mg/kg/injection, schedule: Q01DX009 (ip), vehicle: water
  T/C: 100 % of control
dose: 12.5 mg/kg/injection, schedule: Q01DX009 (ip), vehicle: water
  T/C: 105 % of control and 98 % of control
dose: 25.0 mg/kg/injection, schedule: Q01DX009 (ip), vehicle: water
  T/C: 104 % of control and 106 % of control
dose: 50.0 mg/kg/injection, schedule: Q01DX009 (ip), vehicle: water
  T/C: 99 % of control and 101 % of control and 105 % of control
dose: 100.0 mg/kg/injection, schedule: Q01DX009 (ip), vehicle: water
  T/C: 96 % of control

## Cc1cc(C)nc(N/N=C/c2c(Cl)cccc2Cl)n1
dose: 50.0 mg/kg/injection, schedule: Q04DX003 (ip), vehicle: Klucel (hydroxypropylcellulose) (HPC)
  T/C: 99 % of control
dose: 100.0 mg/kg/injection, schedule: Q04DX003 (ip), vehicle: Klucel (hydroxypropylcellulose) (HPC)
  T/C: 99 % of control
dose: 200.0 mg/kg/injection, schedule: Q04DX003 (ip), vehicle: Klucel (hydroxypropylcellulose) (HPC)
  T/C: 97 % of control

## CCCCCC(CN(C)C)C(=O)/C=C/c1ccc(F)cc1 (configuration not stated)
dose: 12.5 mg/kg/injection, schedule: Q01DX005 (ip), vehicle: saline with Tween-80
  T/C: 98 % of control
dose: 25.0 mg/kg/injection, schedule: Q01DX005 (ip), vehicle: saline with Tween-80
  T/C: 104 % of control
[10]
  T/C: 107 % of control and 118 % of control
[11]
  T/C: 103 % of control

## C/C=C(\C(=O)O)S(=O)(=O)O.[Pb]
[12]
  T/C: 100 % of control
[1]
  T/C: 90 % of control

## CCN(CC)C1=NS(=O)(=O)c2ccccc2C(SC)=C1C
dose: 100.0 mg/kg/injection, schedule: Q04DX002 (ip), vehicle: saline with Tween-80
  T/C: 106 % of control
dose: 200.0 mg/kg/injection, schedule: Q04DX002 (ip), vehicle: saline with Tween-80
  T/C: 100 % of control
dose: 400.0 mg/kg/injection, schedule: Q04DX002 (ip), vehicle: saline with Tween-80
  T/C: 100 % of control

## Cc1cccc(C(=O)N(C)C(c2ccco2)P(=O)(c2ccccc2)c2ccccc2)c1 (configuration not stated)
[1]
  T/C: 107 % of control
[2]
  T/C: 101 % of control
[3]
  T/C: 90 % of control
[7]
  T/C: 86 % of control

## NCCSSc1ccccc1C(=O)O
[6]
  T/C: 102 % of control
[8]
  T/C: 105 % of control
[9]
  T/C: 112 % of control

## CNC(=O)OCc1c(COC(=O)NC)c(-c2ccc(S(C)(=O)=O)cc2)n(C)c1C
dose: 12.5 mg/kg/injection, schedule: Q01DX009 (ip), vehicle: distilled water + Tween-80
  T/C: 111 % of control
dose: 50.0 mg/kg/injection, schedule: Q01DX009 (ip), vehicle: distilled water + Tween-80
  T/C: 162 % of control
dose: 100.0 mg/kg/injection, schedule: Q01DX009 (ip), vehicle: distilled water + Tween-80
  T/C: 161 % of control and 180 % of control
dose: 200.0 mg/kg/injection, schedule: Q01DX009 (ip), vehicle: distilled water + Tween-80
  T/C: 198 % of control

## Nc1nc2c(c(-c3nc(N)nc4c3CCC4)n1)CCC2
dose: 60.0 mg/kg/injection, schedule: Q01DX005 (ip), vehicle: saline
  T/C: 98 % of control
dose: 120.0 mg/kg/injection, schedule: Q01DX005 (ip), vehicle: saline
  T/C: 106 % of control
dose: 240.0 mg/kg/injection, schedule: Q01DX005 (ip), vehicle: saline
  T/C: 97 % of control

## ClCCN(CCCl)c1ccc(/C=N/Nc2ccnc3cc(Cl)ccc23)cc1
[1]
  T/C: 95 % of control
[2]
  T/C: 101 % of control
[3]
  T/C: 93 % of control
